Measured values as given in DBAASP.
In brackets after ≈: the same amount, converted by molar mass. Several values for one entry are separate records, joined by “and”; a condition that tells them apart may be missing. Equal entries are not always repeated.

Assays:
Assay in all cases: ≥ marks a high value that may be exact or a test limit, other limits are often not marked, values filed in µg/mL are converted to µM
[1] = system: Staphylococcus aureus ATCC 25923
[2] = system: Escherichia coli ATCC 25922
[3] = system: Candida albicans ATCC 2002
[4] = system: Pseudomonas aeruginosa CMCCB 10104
[5] = system: Klebsiella pneumoniae ATCC 13883
[6] = system: Staphylococcus aureus ATCC 29213
[7] = system: Salmonella enterica subsp. enterica serovar Typhimurium ATCC 14028
[8] = system: Escherichia coli DH5alpha
[9] = system: Pseudomonas aeruginosa ATCC 27853

Row | SMILES | MIC [1] [µM] | MIC [2] [µM] | MIC [3] [µM] | MIC [4] [µM] | MIC [5] | MIC [6] [µM] | MIC [7] [µM] | MIC [8] | MIC [9] [µM]
1 | CC[C@H](C)[C@H](NC(=O)CN)C(=O)N[C@@H](Cc1ccccc1)C(=O)N[C@@H](CC(C)C)C(=O)N[C@@H](CCCCN)C(=O)N[C@H](C(=O)N[C@@H](CC(C)C)C(=O)NCC(=O)N[C@H](C(=O)NCC(=O)N[C@@H](CCCCN)C(=O)N[C@@H](CCCCN)C(=O)N[C@H](C(=O)N[C@@H](CC(C)C)C(=O)N[C@H]1CSSC[C@@H](C(=O)O)NC(=O)[C@H](CC(C)C)NC(=O)CNC(=O)[C@H](CO)NC(=O)[C@H](C(C)C)NC(=O)CNC1=O)C(C)C)C(C)C)C(C)C [GIFLKVLGVGKKVLCGVSGLC] | 2.58 (≈ 5.39 µg/mL) | 5.17 (≈ 10.8 µg/mL) | 5.17 (≈ 10.8 µg/mL) | 10.3 (≈ 21.6 µg/mL) | – | – | – | – | –
2 | CC[C@H](C)[C@H](NC(=O)CN)C(=O)N[C@@H](Cc1ccccc1)C(=O)N[C@H](C(=O)N[C@@H](CC(C)C)C(=O)N[C@H](C(=O)N[C@@H](CCCCN)C(=O)NCC(=O)N[C@@H](C)C(=O)N[C@@H](C)C(=O)N[C@@H](CCCCN)C(=O)N[C@@H](CC(C)C)C(=O)N[C@H](C(=O)NCC(=O)N[C@@H](CCCCN)C(=O)N[C@H](C(=O)N[C@H](C(=O)N[C@@H](C)C(=O)N[C@@H](CCCCN)C(=O)N[C@@H](CCC(=O)O)C(=O)N[C@@H](C)C(=O)NCC(=O)N[C@@H](CCCCN)C(=O)N[C@H](C(=O)NCC(=O)N[C@@H](CC(C)C)C(=O)N[C@@H](CCC(=O)O)C(=O)N[C@@H](CC(C)C)C(=O)N[C@@H](CCSC)C(=O)N[C@@H](C)C(=O)N[C@H]1CSSC[C@@H](C(=O)O)NC(=O)[C@H](CCC(N)=O)NC(=O)[C@H](CC(N)=O)NC(=O)[C@H]([C@@H](C)O)NC(=O)[C@H]([C@@H](C)CC)NC(=O)[C@H](CCCCN)NC1=O)[C@@H](C)O)C(C)C)[C@@H](C)O)[C@@H](C)CC)[C@@H](C)CC)[C@@H](C)O [GIFTLIKGAAKLIGKTVAKEAGKTGLELMACKITNQC] | 1.13 (≈ 4.3 µg/mL) | 2.22 (≈ 8.5 µg/mL) | 2.22 (≈ 8.5 µg/mL) | 1.13 (≈ 4.3 µg/mL) | – | – | – | – | –
3 | CC[C@H](C)[C@H](NC(=O)CN)C(=O)N[C@@H](Cc1ccccc1)C(=O)N[C@@H](CO)C(=O)N[C@@H](CCCCN)C(=O)N[C@H](C(=O)N[C@@H](CO)C(=O)NCC(=O)N[C@@H](CCCCN)C(=O)N[C@@H](C)C(=O)N[C@H](C(=O)N[C@@H](CCCCN)C(=O)N[C@@H](CC(N)=O)C(=O)N[C@@H](CC(C)C)C(=O)N[C@@H](Cc1ccccc1)C(=O)N[C@H](C(=O)N[C@@H](CCCCN)C(=O)NCC(=O)N[C@@H](C)C(=O)N[C@@H](CCCCN)C(=O)N[C@@H](CC(N)=O)C(=O)N[C@H](C(=O)NCC(=O)N[C@@H](CCCCN)C(=O)N[C@@H](CCC(=O)O)C(=O)N[C@H](C(=O)NCC(=O)N[C@@H](CCSC)C(=O)N[C@@H](CC(=O)O)C(=O)N[C@H](C(=O)N[C@H](C(=O)N[C@@H](CCCN=C(N)N)C(=O)N[C@H](C(=O)NCC(=O)N[C@@H](CCSC)C(=O)N[C@@H](CC(=O)O)C(=O)N[C@H](C(=O)N[C@H](C(=O)NCC(=O)N[C@H]1CSSC[C@@H](C(=O)O)NC(=O)[C@H](CCC(=O)O)NC(=O)CNC(=O)[C@H](CCCCN)NC(=O)[C@H]([C@@H](C)CC)NC(=O)[C@H](CCCCN)NC1=O)C(C)C)C(C)C)[C@@H](C)O)C(C)C)C(C)C)C(C)C)C(C)C)[C@@H](C)CC)[C@@H](C)CC)[C@@H](C)CC [GIFSKISGKAIKNLFIKGAKNVGKEVGMDVVRTGMDVVGCKIKGEC] | 0.849 (≈ 4.1 µg/mL) | 0.849 (≈ 4.1 µg/mL) | 0.435 (≈ 2.1 µg/mL) | 1.7 (≈ 8.2 µg/mL) | – | – | – | – | –
4 | CC[C@H](C)[C@H](NC(=O)[C@H](Cc1cnc[nH]1)NC(=O)[C@H](C)NC(=O)[C@H](CCSC)NC(=O)[C@H](CC(N)=O)NC(=O)[C@H](CCCCN)NC(=O)[C@H](CCCCN)NC(=O)[C@@H](NC(=O)[C@@H](NC(=O)[C@H](CCCCN)NC(=O)[C@H](C)NC(=O)[C@H](Cc1ccccc1)NC(=O)[C@H](CC(C)C)NC(=O)[C@H](CCCCN)NC(=O)[C@@H]1CCCN1C(=O)[C@H](CC(C)C)NC(=O)[C@@H](N)Cc1ccccc1)[C@@H](C)CC)[C@@H](C)O)C(=O)N[C@@H](CCCN=C(N)N)C(=O)N[C@@H](CS)C(=O)O [FLPKLFAKITKKNMAHIRC] | – | – | – | – | 12 µM and 10 µM | – | 15 (≈ 33.9 µg/mL) | 17 µM and 12 µM | 15 (≈ 33.9 µg/mL)

Continued, values first:

Row | MIC [1] [µM] | MIC [2] [µM] | MIC [3] [µM] | MIC [4] [µM] | MIC [5] | MIC [6] [µM] | MIC [7] [µM] | MIC [8] | MIC [9] [µM] | SMILES
5 | 1.11 (≈ 5.4 µg/mL) | 1.11 (≈ 5.4 µg/mL) | 0.555 (≈ 2.7 µg/mL) | 0.555 (≈ 2.7 µg/mL) | – | – | – | – | – | CC[C@H](C)[C@H](NC(=O)CNC(=O)[C@H](CCCCN)NC(=O)CNC(=O)[C@H](C)NC(=O)[C@H](Cc1ccccc1)NC(=O)[C@H](CCCCN)NC(=O)[C@H](CO)NC(=O)[C@H](Cc1ccccc1)NC(=O)[C@H](CC(C)C)NC(=O)CN)C(=O)N[C@@H](CCCCN)C(=O)N[C@@H](CC(=O)O)C(=O)N[C@@H](CC(C)C)C(=O)N[C@H](C(=O)N[C@@H](Cc1ccccc1)C(=O)N[C@@H](CCCCN)C(=O)NCC(=O)N[C@H](C(=O)N[C@@H](CCCCN)C(=O)N[C@@H](Cc1cnc[nH]1)C(=O)N[C@H](C(=O)NCC(=O)N[C@@H](CCCCN)C(=O)N[C@@H](CCC(=O)O)C(=O)N[C@H](C(=O)NCC(=O)N[C@@H](CCSC)C(=O)N[C@@H](CC(=O)O)C(=O)N[C@H](C(=O)N[C@H](C(=O)N[C@@H](CCCN=C(N)N)C(=O)N[C@H](C(=O)NCC(=O)N[C@H](C(=O)N[C@@H](CC(=O)O)C(=O)N[C@H](C(=O)N[C@@H](C)C(=O)NCC(=O)N[C@H]1CSSC[C@@H](C(=O)O)NC(=O)[C@H](CCC(=O)O)NC(=O)CNC(=O)[C@H](CCCCN)NC(=O)[C@H]([C@@H](C)CC)NC(=O)[C@H](CCCCN)NC1=O)C(C)C)[C@@H](C)CC)[C@@H](C)O)[C@@H](C)CC)C(C)C)C(C)C)[C@@H](C)CC)C(C)C)[C@@H](C)CC [GLFSKFAGKGIKDLIFKGVKHIGKEVGMDVIRTGIDVAGCKIKGEC]
6 | 3.4 (≈ 11 µg/mL) | 1.7 (≈ 5.5 µg/mL) | 3.4 (≈ 11 µg/mL) | 6.8 (≈ 22 µg/mL) | – | – | – | – | – | CC[C@H](C)[C@H](NC(=O)[C@H](CC(C)C)NC(=O)[C@H](CC(C)C)NC(=O)[C@H](CC(=O)O)NC(=O)[C@H](CCCCN)NC(=O)[C@@H](NC(=O)[C@@H](NC(=O)CNC(=O)[C@H](CC(C)C)NC(=O)[C@@H](NC(=O)[C@@H](N)CO)C(C)C)[C@@H](C)O)C(C)C)C(=O)NCC(=O)N[C@@H](C)C(=O)NCC(=O)N[C@@H](CCCCN)C(=O)N[C@@H](CO)C(=O)N[C@@H](C)C(=O)N[C@@H](C)C(=O)N[C@@H](CCC(N)=O)C(=O)N[C@@H](CO)C(=O)N[C@H](C(=O)N[C@@H](CC(C)C)C(=O)N[C@H](C(=O)N[C@@H](C)C(=O)N[C@@H](CC(C)C)C(=O)N[C@@H](CO)C(=O)N[C@H]1CSSC[C@@H](C(=O)O)NC(=O)[C@H](CO)NC(=O)[C@H](CC(N)=O)NC(=O)[C@H](CO)NC(=O)[C@H](CC(C)C)NC(=O)[C@H](CCCCN)NC1=O)[C@@H](C)O)C(C)C [SVLGTVKDLLIGAGKSAAQSVLTALSCKLSNSC]
7 | 3.56 (≈ 8 µg/mL) | 1.78 (≈ 4 µg/mL) | 3.56 (≈ 8 µg/mL) | 7.13 (≈ 16 µg/mL) | – | – | – | – | – | CC[C@H](C)[C@H](NC(=O)[C@H](CC(C)C)NC(=O)[C@@H](NC(=O)[C@H](Cc1ccccc1)NC(=O)[C@@H](NC(=O)[C@@H](N)CCC(N)=O)C(C)C)[C@@H](C)O)C(=O)N[C@@H](CCCCN)C(=O)NCC(=O)N[C@@H](C)C(=O)N[C@H](C(=O)N[C@@H](CCC(N)=O)C(=O)N[C@@H](CC(C)C)C(=O)N[C@H](C(=O)N[C@@H](CCCN=C(N)N)C(=O)N[C@@H](CCCCN)C(=O)N[C@H](C(=O)N[C@@H](CC(C)C)C(=O)NCC(=O)N[C@@H](CCC(=O)O)C(=O)N[C@@H](CCC(N)=O)C(=O)O)[C@@H](C)O)[C@@H](C)CC)[C@@H](C)O [QVFTLIKGATQLIRKTLGEQ]
8 | 2.87 (≈ 10.2 µg/mL) | 5.74 (≈ 20.4 µg/mL) | 1.44 (≈ 5.1 µg/mL) | 5.74 (≈ 20.4 µg/mL) | – | – | – | – | – | CC[C@H](C)[C@H](NC(=O)[C@H](C)NC(=O)[C@H](CC(C)C)NC(=O)[C@H](CCC(=O)O)NC(=O)[C@H](CCCCN)NC(=O)[C@H](Cc1ccccc1)NC(=O)[C@@H](NC(=O)[C@H](CO)NC(=O)[C@H](CC(C)C)NC(=O)[C@H](Cc1ccccc1)NC(=O)[C@@H](N)CO)[C@@H](C)O)C(=O)N[C@@H](CC(N)=O)C(=O)N[C@@H](C)C(=O)N[C@@H](C)C(=O)N[C@@H](CCCCN)C(=O)N[C@@H](CC(N)=O)C(=O)N[C@@H](C)C(=O)NCC(=O)N[C@@H](CCC(N)=O)C(=O)N[C@@H](CO)C(=O)N[C@H](C(=O)N[C@@H](CC(C)C)C(=O)N[C@@H](Cc1cnc[nH]1)C(=O)N[C@H](C(=O)N[C@@H](CC(C)C)C(=O)N[C@@H](CO)C(=O)N[C@H]1CSSC[C@@H](C(=O)O)NC(=O)[C@H]([C@@H](C)O)NC(=O)[C@H](CCCCN)NC(=O)[C@H](CC(=O)O)NC(=O)[C@H](CC(C)C)NC(=O)[C@H](CCCCN)NC1=O)[C@@H](C)O)[C@@H](C)CC [SFLSTFKELAINAAKNAGQSILHTLSCKLDKTC]
9 | – | – | – | – | ≥ 78.9 µM | 39.4 (≈ 64 µg/mL) | – | – | – | CC[C@H](C)[C@H](NC(=O)[C@H](C)NC(=O)[C@@H](N)C(C)C)C(=O)N[C@@H](C)C(=O)N[C@@H](CC(C)C)C(=O)N[C@@H](CCCCN)C(=O)N[C@@H](C)C(=O)N[C@@H](C)C(=O)N[C@@H](Cc1cnc[nH]1)C(=O)N[C@@H](Cc1ccc(O)cc1)C(=O)N[C@@H](C)C(=O)N[C@H](C(=O)N[C@@H](Cc1cnc[nH]1)C(=O)N[C@@H](CCCCN)C(=O)N[C@@H](CCC(=O)O)C(=O)O)[C@@H](C)O [VAIALKAAHYATHKE]
